Assay results taken from publication PMC7071076, “Antibacterial Activity and Pharmacokinetic Profile of a Promising Antibacterial Agent: 22-(2-Amino-phenylsulfanyl)-22-Deoxypleuromutilin” (Molecules, 2020).
≈ marks a conversion by molar mass, not a printed value. Read-outs that look alike come from different tables or passages of the source.

Experiments:
MRSA ATCC 43300 = test: Postantibiotic effect (PAE); format: cell-based, Staphylococcus aureus
Protocol: The PAE was determined with previously methods. MRSA in logarithmic phase was diluted to 10^6 CFU/mL using MH broth as the inoculum. […] The group in which the drug was replaced by 0.9% saline was served as the control. All the samples were incubated at 37 °C for 1 and 2 h. At the end of incubation, the drug was removed by 1000-fold dilution with MH broth which was preheated at 37 °C. After well mixing, the broth was further cultured at 37 °C. 100 µL culture solution was extracted at different time intervals (0, 1, 2, 4, 6, and 8 h). Following a 10-fold dilution, colonies were counted after 20 h of incubation. The kinetic curve was established with the logarithm of the colony number as the ordinate and the time as the abscissa. The PAE was presented in hour and calculated by the equation PAE = TA − TC [40]. TA was defined as the culture time required for the number of MRSA to up to 1 log CFU/mL after the drug removal, and TC was the culture time required for the control group.

MRSA = test: MIC against MRSA (summary over strains); format: cell-based; settings: Staphylococcus aureus, range over strains, read-out: minimal inhibitory concentration
Protocol: The MIC of amphenmulin against MRSA, Escherichia coli, Salmonella typhimurium, Enterococcus faecalis, and Enterococcus faecium were determined using tiamulin as controls. MIC values were measured by the method of previous work. Staphylococcus aureus ATCC 29213 was used as the quality control bacteria, and the quality control range was referred to the Clinical and Laboratory Standards Institute (CLSI). The bacteria solution was diluted to ~10^6 CFU/mL with Mueller–Hinton (MH) broth for MRSA, Escherichia coli and Salmonella typhimurium while Trypticase Soy Broth for Enterococcus faecalis and Enterococcus faecium. Drugs were dissolved in an aqueous solution of N, N-dimethylformamide (DMF) at a concentration of 2560 µg/mL, and then diluted with broth to prepare working solution (1280 µg/mL). The drug susceptibility testing was performed in 96-well plate. A total of 20 µL of working solution was added into column 1 and well mixed as a 10-fold dilution, following which Serial 2-fold dilutions were prepared to provide concentration ranges of 128–0.0078 µg/mL. Blank broth (no cultures) and bacteria solution (drugs replaced by blank solvent) were set as drug-free controls. Each 96-well plate was cultured at 37 °C for 24 h. The MIC value is the lowest concentration of amphenmulin which inhibits the visible growth of bacteria. The experiment was repeated three times.

[1] = Pharmacokinetic study in mice; format: in vivo; settings: female, ICR, mouse, plasma, 10 mg/kg
Protocol: Pharmacokinetic parameters of amphenmulin were measured according to previous reports with some modifications. Each group consisted of eight female SPF-ICR mice. Amphenmulin (1 mg/mL) was administered intravenously, intraperitoneally, and orally at a dose of 10 mg/kg, respectively. Formulation of amphenmulin was a filtered solution in 5% DMSO, 5% Tween-80, and 90% normal saline. Serial samples (each 0.2 mL) were collected from the ocular venous plexus and placed in a plastic centrifuge tube. The blood samples were placed at room temperature for 20 min and transferred to a 4 °C refrigerator for 12 h to promote blood coagulation. Then samples were centrifuged at 2000 r/min for 10 min to get serum. Serum samples were frozen at −20°C. 100 µL of samples was accurately absorbed and mixed with 100 µL of acetonitrile in a 1.5 mL centrifuge tube. The sample was mixed vigorously and centrifuged at 12,000 rpm for 10 min. The supernatant was transferred, filtered through a 0.22 μm cellulose membrane filter and used for LC-MS/MS analysis. Equipment and analysis conditions were shown in supplemental data. The pharmacokinetic parameters of amphenmulin were determined from the mean plasma concentration with noncompartmental analysis in WinNonlin 5.2 software (Pharsight, Mountain View, CA, USA). Data were shown as mean ± standard deviation (SD).

[2] = intraperitoneal, mice, intraperitoneal 10 mg/kg, n = 8, read-out: plasma concentration, mean ± S.D
[3] = iv, intravenous 10 mg/kg, mice 1-8 in order, read-out: plasma concentration, individual mice
[4] = iv, mice, intravenous 10 mg/kg, n = 8, read-out: plasma concentration, mean ± S.D

SMILES: C=C[C@]1(C)C[C@@H](OC(=O)CSc2ccccc2N)[C@]2(C)[C@H](C)CC[C@]3(CCC(=O)[C@H]32)[C@@H](C)[C@@H]1O [Amphenmulin, 22-(2-amino-phenylsulfanyl)-22-deoxypleuromutilin]
- PAE (MRSA ATCC 43300; 1× MIC, exposure for 1 h): 0.71 h
- PAE (MRSA ATCC 43300; 1× MIC, exposure for 2 h): 1.35 h
- PAE (MRSA ATCC 43300; 4× MIC, exposure for 1 h): 1.78 h
- PAE (MRSA ATCC 43300; 4× MIC, exposure for 2 h): 2.83 h
- MIC (MRSA): 0.0156 to 8 µg/mL (≈ 0.0321 to 16.5 µM)
- concentration at 0.083 h [1, 2]: 850 ± 320 ng/mL
- concentration at 0.25 h [1, 2]: 1220 ± 460 ng/mL
- concentration at 0.5 h [1, 2]: 980 ± 420 ng/mL
- concentration at 0.75 h [1, 2]: 740 ± 330 ng/mL
- concentration at 1 h [1, 2]: 580 ± 240 ng/mL
- concentration at 2 h [1, 2]: 340 ± 160 ng/mL
- concentration at 4 h [1, 2]: 190 ± 120 ng/mL
- concentration at 6 h [1, 2]: 120 ± 90 ng/mL
- concentration at 8 h [1, 2]: 70 ± 40 ng/mL
- concentration at 12 h ([1]; intraperitoneal, mice, intraperitoneal 10 mg/kg, 12 h, n = 8, read-out: plasma concentration, mean ± S.D): 30 ± 10 ng/mL
- AUC(0-inf) ([1]; ip, mice, intraperitoneal): 2520 ± 810 ng·h/mL
- Cmax ([1]; ip, mice, intraperitoneal): 1340 ± 420 ng/mL
- MRT ([1]; ip, mice, intraperitoneal): 3.28 ± 0.42 h
- Tmax ([1]; ip, mice, intraperitoneal): 0.32 ± 0.21 h
- bioavailability ([1]; ip, mice, intraperitoneal): 20.7%
- half-life ([1]; ip, mice, intraperitoneal): 2.64 ± 0.72 h
- Vd/F ([1]; ip, mice, intraperitoneal, read-out: Vz/F): 15.9 ± 7.41 L/kg
- concentration at 0.083 h [1, 3]: 3060 ng/mL
- concentration at 0.25 h [1, 3]: 2850 ng/mL
- concentration at 0.5 h [1, 3]: 2650 ng/mL
- concentration at 0.75 h [1, 3]: 2350 ng/mL
- concentration at 4 h [1, 3]: 850 ng/mL
- concentration at 6 h [1, 3]: 460 ng/mL
- concentration at 0.083 h [1, 4]: 3940 ± 730 ng/mL
- concentration at 0.25 h [1, 4]: 3770 ± 640 ng/mL
- concentration at 0.5 h [1, 4]: 3530 ± 530 ng/mL
- concentration at 0.75 h [1, 4]: 3310 ± 740 ng/mL
- concentration at 1 h [1, 4]: 3190 ± 700 ng/mL
- concentration at 2 h [1, 4]: 2300 ± 650 ng/mL
- concentration at 4 h [1, 4]: 1010 ± 160 ng/mL
- concentration at 6 h [1, 4]: 420 ± 90 ng/mL
- concentration at 8 h [1, 4]: 210 ± 80 ng/mL
